# Measurements taken from patent publication US6890960B1, “Vetiver oil extracts as termite repellent and toxicant” (Board of Supervisors of Louisiana State University and …, priority 1999, dated 2005).
# Read-outs that look alike come from different tables or passages of the source.
# Tests used:
# [1] = tested on: Formosan subterranean termites; format: in vivo; conditions: for Worker Mortality, Mean ± S.D.: workers only
# Protocol: The amount of nootkatone isolated from the vetiver oil was insufficient to test for termite repellant activity. Nootkatone was therefore purchased from a commercial source (Lancaster Synthesis Inc., Windham, N.H.). A three-chambered plastic container was used as described above in Example 2. A small hole was melted at the bottom of each of the two inner walls to connect the chambers. Four replicate chambers were used for each concentration of nootkatone (μg/g of sand) tested: 0, 10 μg/g, 20 μg/g, 100 μg/g, and 200 μg/g. For each concentration, the nootkatone in 25 ml ethyl alcohol was mixed with 500 g #4 blasting sand as described in Example 2. The sand was dried overnight. The next day, 115 g of treated sand was added to the middle chamber; 115 g untreated sand was added to one end chamber, and a weighted filter paper (Whatman #1, 55 mm) was placed in the opposite end chamber. The filter paper had been dried at 70° C. for 3 hr and cooled to room temperature before weighing. Then 10 ml ddH2O was added to each chamber with sand and 200 μl ddH2O was added to the filter paper. Four containers with no nootkatone served as negative controls. Fifty worker and 5 soldier termites from a single colony collected in Algiers, La., were placed in each untreated sand chamber. The chambers were covered and kept in a dark incubator at 29° C.
# On the 16th day, the number of live termites was counted, and the bottom of each container was scanned to determine tunneling length as described in Example 2. The filter paper from each container was removed, cleaned, dried at 70° C. for 3 hr, cooled, and finally weighed.
# Between-treatment differences in filter paper weight, mortality, and tunnel length in the treated compartments were compared by analysis of variance (ANOVA) and Tukey's Studentized Range Test. The results are presented in Tables 4, 5, and 6 and in FIGS. 1-3.
# [2] = tested on: humans; conditions: use in perfumery and flavor industries; cited from earlier work
# [3] = tested on: Formosan subterranean termites; test: Feeding and tunneling experiment with treated balsa wood; format: in vivo, Coptotermes formosanus; conditions: data not shown
# Protocol: Balsa wood (5 cm×5 cm×0.5 mm) was soaked for 1 hr in a 1% ethanol solution of either vetiver oil, nootkatone, TIM-BOR®, or an ethanol control. The treated wood was then dried and allowed to air until used in the experiments. The experiments were run at one, three, and six months after the wood was treated. The feeding and tunneling experimental procedure was as described in Example 2, except that in place of the filter paper as food for the termites, treated balsa wood was placed in each end compartment; and untreated sand was placed in all three chambers. Into the center chamber was added 225 workers and 25 soldiers collected from two large Formosan termite colonies in New Orleans, La. Three replicate containers for each of the two colonies and for each treatment of balsa wood were monitored for 8 days. Tunneling activity was periodically checked on days 3, 5, and 7 by scanning the bottoms of the containers. On day 8, the balsa wood was removed and weighed to determine wood consumption.
# [4] = tested on: termites; test: Quick petri dish termite distribution assay of α-cedrene (treated vs untreated sand); format: in vivo; conditions: 100 μg/dish
# Protocol: The termite bio-activity of α-cedrene, a component of vetiver oil, was tested using a commercially available product (Fluka, a division of Sigma-Aldrich, Inc., St. Louis, Mo.). A new method for screening compounds for termite bio-activity was developed that was faster than the bioassay described in Example 2. Five cm diameter petri dishes with lids were used. Two ml of hot agar solution (1.5 g/100 ml ddH2O) was spread evenly in the bottom of each dish and allowed to cool. The agar solution provided moisture for the termites and held the sand in place. The sand was autoclaved for 30 min, the alcohol with sample added, and dried in an oven. For three dishes, one half of the bottom of each dish was covered with 1.5 g treated sand mixed with a total of 100 μg α-cedrene per dish, dissolved in 250 μl ethanol, and the other half with 1.5 g untreated sand (only ethanol). The sand completely covered the agar, but was not thick enough to conceal tunneling termites. Three dishes were prepared as a control with only untreated sand in each side. Finally, ten termites were added to each dish, and the dishes were covered to eliminate light.
# The termite distribution in each dish, measured by counting the number of termites on the untreated half of the dish, was examined each hour for up to 8 hr. […] Therefore the extract was considered a repellent. The extract was considered toxic if some or all termites behaved sluggishly, were moribund or dead.
smiles,measurement,setting,value
"C=C(C)C1CCC2=CC(=O)CC(C)C2(C)C1 (stereo not shown) [nootkatone, 4,4a5,6,7,8-hexahydro-6-isopropenyl-4,4a-dimethyl-2(3H)-naphthalenone]","Filter Paper Consumption, Mean ± S.D.","[1]; 10 μg/gm sand, 16th day",0.0019 ± 0.002641 gm
same,"Tunnel Length in Treated Compartment, Mean ± S.D.","[1]; 10 μg/gm sand, 16th day",7.225 ± 5.155 cm
same,"Worker Mortality, Mean ± S.D.","[1]; 10 μg/gm sand, 16th day",88.50 ± 10.12
same,"Filter Paper Consumption, Mean ± S.D.","[1]; 20 μg/gm sand, 16th day",0.000525 ± 0.000709 gm
same,"Tunnel Length in Treated Compartment, Mean ± S.D.","[1]; 20 μg/gm sand, 16th day",0.000 ± 0.000 cm
same,"Worker Mortality, Mean ± S.D.","[1]; 20 μg/gm sand, 16th day",87.00 ± 18.22
same,"Filter Paper Consumption, Mean ± S.D.","[1]; 100 μg/gm sand, 16th day",0.000025 ± 0.000050 gm
same,"Tunnel Length in Treated Compartment, Mean ± S.D.","[1]; 100 μg/gm sand, 16th day",0.000 ± 0.000 cm
same,"Worker Mortality, Mean ± S.D.","[1]; 100 μg/gm sand, 16th day",90.50 ± 11.70
same,"Filter Paper Consumption, Mean ± S.D.","[1]; 200 μg/gm sand, 16th day",0.000275 ± 0.00055 gm
same,"Tunnel Length in Treated Compartment, Mean ± S.D.","[1]; 200 μg/gm sand, 16th day",0.000 ± 0.000 cm
same,"Worker Mortality, Mean ± S.D.","[1]; 200 μg/gm sand, 16th day",95.00 ± 8.718
same,worker mortality,[1]; all chambers where the nootkatone concentration was ≦100 μg/g sand,Ninety percent mortality or greater
same,tunneling in the middle chamber,"[1]; concentrations higher than 10 μg/g, 16th day",no tunneling was visible
same,consumption of filter paper,[1]; concentrations higher than 20 μg/g,Almost no consumption of filter paper
same,"lowest concentration effective as repellent and toxicant (decreased tunneling and feeding, increased mortality)",[1]; in sand,10 µg/g
same,feeding as measured by loss of filter paper weight vs control,[1]; lowest concentration (10 μg/g),significantly decreased feeding
same,tunneling activity in middle chamber,"[1]; lowest concentration of 10 μg/g, 16th day",substantially decreased the tunneling activity
same,toxicity to humans,[2],essentially non-toxic to humans
same,ranking of effect on wood consumption,[3]; 1 and 3 month interval after wood treatment,greatest effect on decreasing wood consumption
same,wood consumption vs control group,"[3]; balsa wood soaked in 1% ethanol solution, 1, 3 and 6 months after treatment, day 8",consumed less wood than the control group
same,effectiveness as a termite repellent,[3]; six months after the initial treatment of the wood sample,retained their effectiveness
same,reduction of wood consumption compared with borate solution,[3]; six months after wood treatment,as effective as the borate solution
same,tunneling activity of the termites,"[3]; treated balsa wood, even after three months",substantially reduced with vetiver oil and especially with nootkatone
"CC1=CC[C@@]23C[C@@H]1C(C)(C)[C@@H]2CC[C@H]3C [α-Cedrene, α-cedrene]",termite deaths,[4],None of the termites died
same,repellency for termites,[4]; 2-3 h time frame,weak repellent
same,Percent of termites on the untreated side (sum of the three replicates),[4]; 1 hr,50%
same,Percent of termites on the untreated side (sum of the three replicates),[4]; 2 hr,93.3%
same,Percent of termites on the untreated side (sum of the three replicates),[4]; 3 hr,86.7%
same,Percent of termites on the untreated side (sum of the three replicates),[4]; 4 hr,63.3%
same,Percent of termites on the untreated side (sum of the three replicates),[4]; 24 hr,63.3%
